Patent US9987282B2, “Small molecule inhibitors of influenza A RNA-dependent RNA polymerase” (Nant Holdings IP, LLC, priority 2011, dated 2018)

Assays:
[1] = test system: cell death-activated reporter construct; experiment: Counter screen using a cell death-activated reporter construct (constitutive gene expression); details: for observed toxicity or efficacy in antiviral and counterscreen assays: antiviral reporter assay and counterscreen, tested up to 50 uM
[2] = test system: influenza A/WS/1933 (H1N1); experiment: In vitro viral propagation in MDCK cells, read by hemagglutination assay; assay type: cell-based; details: in vitro infection
[3] = test system: primary renal proximal tubule epithelial cells (RPTEC)
[4] = test system: influenza A; assay type: cell-based
[5] = test system: influenza A/Puerto Rico/8/34 (H1N1) virus; experiment: In vitro viral propagation in MDCK cells, read by chicken red blood cell hemagglutination assay; assay type: cell-based; details: MDCK cells pre-incubated with compound; supernatants after 18-20 hour incubation
[6] = test system: liver-derived HepG2 cells
[7] = test system: H3N2 serotype A/Aichi/2/68; experiment: In vitro viral propagation in MDCK cells, read by hemagglutination assay; assay type: cell-based, influenza A/Aichi/2/68 (H3N2); details: in vitro infection
[8] = test system: influenza A/Puerto Rico/8/34; experiment: In vivo survival study in infected Balb/C mice; details: day 7 post-infection, 2×LD50 challenge
Method: In Vivo Survival Studies: Groups of 5 Balb/C mice ([…]) were weighed prior to the start of study and injected intravenously at the base of the tail with formulations containing A0435 at doses of 3.17, 1, or 0 mg/kg in phosphate buffered saline containing 3% w/v mouse serum albumin. Four hours later, these mice were challenged intranasally with 2×LD50 of influenza A/Puerto Rico/8/34 under anesthesia. Identical doses of A0435 were administered 24 and 48 hours after the initial dose administration and animal weights were monitored daily. Surviving animals were defined as those who maintained 70% or more of their starting weight.

[9] = target: influenza A RNA-dependent RNA polymerase (RdRP) (Influenza A virus, UniProt P03428+P03431+P03433)

Row | Structure (SMILES) | observed toxicity or efficacy in antiviral and counterscreen assays [1] | other results
1 | CCc1c(C)nc2cc(-c3ccc(OC)c(OC)c3)nn2c1NCCc1ccc(F)cc1 [A0440, 2-(3,4-dimethoxyphenyl)-6-ethyl-N-(4-fluorophenethyl)-5-methylpyrazolo[1,5-a]pyrimidin-7-amine] | >50 µM (no observed toxicity or efficacy in either assay tested) | –
2 | COc1ccc(-c2cc3nc4c(c(NCCc5cccnc5)n3n2)CCC4)cc1OC [A0444, 2-(3,4-dimethoxyphenyl)-N-(2-(pyridin-3-yl)ethyl)-6,7-dihydro-5H-cyclopenta[d]pyrazolo[1,5-a]pyrimidin-8-amine] | >10 uM (toxic to both antiviral and counterscreen at 50 uM) | –
3 | COc1ccc(-c2cc3nccc(NCc4ccccc4OC)n3n2)cc1 [A0547, N-(2-methoxybenzyl)-2-(4-methoxyphenyl)pyrazolo[1,5-a]pyrimidin-7-amine] | >50 µM (no observed toxicity or efficacy in either assay tested) | –
4 | CCc1c(C)nc2cc(-c3ccc(OC)c(OC)c3)nn2c1NCCc1ccccn1 [A0435] | – | inhibition of virus [2]: significantly inhibited; tolerability in cells [3]: well-tolerated; cytopathic effects in infected cells [4]: little to no signs of the cytopathic effects; inhibitory impact on the level of constitutive gene expression in the counter-screen assay ([1]; dose titration): no visible inhibitory impact; concentration showing significant antiviral activity (hemagglutination assay) [5]: > 4 µM; tolerability in cells [6]: well-tolerated; inhibition of virus [7]: significantly inhibited; animals surviving infection ([8]; 1 mg/kg intravenous): 2/5; animals surviving infection ([8]; 3.17 mg/kg intravenous): 3/5
5 | COc1cc(OC)cc(-c2cc3nc(C)cc(NCC(C)c4ccccc4)n3n2)c1 (centres unmarked) [A0525, 2-(3,5-dimethoxyphenyl)-5-methyl-N-(2-phenylpropyl)pyrazolo[1,5-a]pyrimidin-7-amine] | >50 µM (no observed toxicity or efficacy in either assay tested) | –
6 | COc1ccc(-c2cc3nc(-c4ccccc4)cc(NCc4ccccc4C)n3n2)cc1OC [A0528, 2-(3,4-dimethoxyphenyl)-N-(2-methylbenzyl)-5-phenylpyrazolo[1,5-a]pyrimidin-7-amine] | >50 µM (no observed toxicity or efficacy in either assay tested) | –
7 | Cc1cc(NC(CO)C(O)c2ccccc2)n2nc(-c3cccc(F)c3)cc2n1 (centres unmarked) [A0531, 2-(2-(3-fluorophenyl)-5-methylpyrazolo[1,5-a]pyrimidin-7-ylamino)-1-phenylpropane-1,3-diol] | >50 µM (no observed toxicity or efficacy in either assay tested) | –
8 | CCc1c(C)nc2cc(-c3ccc(OC)c(OC)c3)nn2c1NCCc1ccccc1C [A0439] | – | concentration showing significant antiviral activity (hemagglutination assay) [5]: > 7.5 µM; toxicity in the reporter assay [9]: increased toxicity at higher doses due to precipitation
9 | COc1ccc(-c2cc3c(=O)[nH]nc(SCc4ccccc4Cl)n3n2)cc1OC [A0553, 7-(2-chlorobenzylthio)-2-(3,4-dimethoxyphenyl)pyrazolo [1,5-d][1,2,4]triazin-4(5H)-one] | >50 µM (no observed toxicity or efficacy in either assay tested) | –
10 | COc1ccc(-c2cc3nc4c(c(NCc5ccccc5F)n3n2)CCCC4)cc1 [A0529, N-(2-fluorobenzyl)-2-(4-methoxyphenyl)-5,6,7,8-tetrahydropyrazolo[5,1-b]quinazolin-9-amine] | >50 µM (no observed toxicity or efficacy in either assay tested) | –
11 | COc1ccc(-c2cc3c(=O)[nH]nc(SCc4ccc5c(c4)OCO5)n3n2)cc1OC [A0551, 7-(benzo[d][1,3]dioxol-5-ylmethylthio)-2-(3,4-dimethoxyphenyl)pyrazolo [1,5-d][1,2,4]triazin-4(5H)-one] | >50 µM (no observed toxicity or efficacy in either assay tested) | –
12 | CCc1c(C)nc2cc(-c3cc(C)on3)nn2c1NCCc1ccccn1 [A0445, 6-ethyl-5-methyl-2-(5-methylisoxazol-3-yl)-N-(2-(pyridin-2-yl)ethyl)pyrazolo[1,5-a]pyrimidin-7-amine] | >50 µM (no observed toxicity or efficacy in either assay tested) | –
13 | Cc1ccc(-c2cc3nc4c(c(NCCc5ccccn5)n3n2)CCC4)cc1 [A0437, N-(2-(pyridin-2-yl)ethyl)-2-p-tolyl-6,7-dihydro-5H-cyclopenta[d]pyrazolo[1,5-a]pyrimidin-8-amine] | >50 µM (no observed toxicity or efficacy in either assay tested) | –
14 | CCc1c(C)nc2cc(-c3ccc(OC)c(OC)c3)nn2c1NCCc1ccc(OC)c(OC)c1 [A0438, N-(3,4-dimethoxyphenethyl)-2-(3,4-dimethoxyphenyl)-6-ethyl-5-methylpyrazolo[1,5-a]pyrimidin-7-amine] | >10 uM (toxic to both antiviral and counterscreen at 50 uM) | –
15 | Cc1cc(NCC(O)c2cccc(O)c2)n2nc(-c3cccc(F)c3)cc2n1 (centres unmarked) [A0532, 3-(2-(2-(3-fluorophenyl)-5-methylpyrazolo[1,5-a]pyrimidin-7-ylamino)-1-hydroxyethyl)phenol] | >50 µM (no observed toxicity or efficacy in either assay tested) | –
16 | COc1ccc(-c2cc3nc(C)cc(NCc4ccc5c(c4)OCO5)n3n2)cc1 [A0530, N-(benzo[d][1,3]dioxol-5-ylmethyl)-2-(4-methoxyphenyl)-5-methylpyrazolo[1,5-a]pyrimidin-7-amine] | >50 µM (no observed toxicity or efficacy in either assay tested) | –
17 | COc1ccc(-c2c(C)nn3c(NCC(C)c4ccccc4)cc(C)nc23)cc1OC (centres unmarked) [A0549, 3-(3,4-dimethoxyphenyl)-2,5-dimethyl-N-(2-phenylpropyl)pyrazolo[1,5-a]pyrimidin-7-amine] | >50 µM (no observed toxicity or efficacy in either assay tested) | –
18 | CCOc1ccc(-c2cc3c(SCc4cccc(C)c4)nccn3n2)cc1 [A0552, 2-(4-ethoxyphenyl)-4-(3-methylbenzylthio)pyrazolo [1,5-a]pyrazine] | >50 µM (no observed toxicity or efficacy in either assay tested) | –
19 | CCc1c(C)nc2cc(-c3cc(OC)cc(OC)c3)nn2c1NCCc1ccccc1 [A0527, 2-(3,5-dimethoxyphenyl)-6-ethyl-5-methyl-N-phenethylpyrazolo[1,5-a]pyrimidin-7-amine] | >50 µM (no observed toxicity or efficacy in either assay tested) | –
20 | COc1ccc(-c2cc3nc(C)c(C)c(N4CCCC4)n3n2)cc1OC [A0443, 2-(3,4-dimethoxyphenyl)-5,6-dimethyl-7-(pyrrolidin-1-yl)pyrazolo[1,5-a]pyrimidine] | >50 µM (no observed toxicity or efficacy in either assay tested) | –
21 | COc1ccc(-c2c(C)nn3c(N4CCc5ccccc5C4)cc(C)nc23)cc1OC [A0550, 2-(3-(3,4-dimethoxyphenyl)-2,5-dimethylpyrazolo[1,5-a]pyrimidin-7-yl)-1,2,3,4-tetrahydroisoquinoline] | >50 µM (no observed toxicity or efficacy in either assay tested) | –
22 | CCc1c(C)nc2cc(-c3ccc(F)cc3)nn2c1NCCc1ccccn1 [A0436, 6-ethyl-2-(4-fluorophenyl)-5-methyl-N-(2-(pyridin-2-yl)ethyl)pyrazolo[1,5-a]pyrimidin-7-amine] | >10 uM (toxic to both antiviral and counterscreen at 50 uM) | –
23 | Fc1ccc(-c2cc3nc4c(c(NCCc5ccccn5)n3n2)CCCC4)cc1 [A0441, 2-(4-fluorophenyl)-N-(2-(pyridin-2-yl)ethyl)-5,6,7,8-tetrahydropyrazolo[5,1-b]quinazolin-9-amine] | >10 uM (toxic to both antiviral and counterscreen at 50 uM) | –
24 | CCc1c(C)nc2cc(-c3ccc(OC)c(OC)c3)nn2c1NCc1cc(OC)ccc1OC [A0526, N-(2,5-dimethoxybenzyl)-2-(3,4-dimethoxyphenyl)-6-ethyl-5-methylpyrazolo[1,5-a]pyrimidin-7-amine] | >50 µM (no observed toxicity or efficacy in either assay tested) | –
25 | Clc1ccc(-c2cc3nc4c(c(NCCc5ccccn5)n3n2)CCCC4)cc1 [A0442, 2-(4-chlorophenyl)-N-(2-(pyridin-2-yl)ethyl)-5,6,7,8-tetrahydropyrazolo[5,1-b]quinazolin-9-amine] | >10 uM (toxic to both antiviral and counterscreen at 50 uM) | –
26 | COc1ccc(-c2cc3nc(C)cc(NCc4ccccc4)n3n2)cc1 [A0548, N-benzyl-2-(4-methoxyphenyl)-5-methylpyrazolo[1,5-a]pyrimidin-7-amine] | >50 µM (no observed toxicity or efficacy in either assay tested) | –
